Measured values: PMC8042770, “Odorant Receptors for Detecting Flowering Plant Cues Are Functionally Conserved across Moths and Butterflies” (Molecular Biology and Evolution, 2020)
“Also recorded” adds a separate entry of the source.

Legend:
HarmOR59 = HarmOR59 (Helicoverpa armigera, UniProt A0A7T3KAU6); assay: Xenopus oocyte two-electrode voltage clamp, HarmOR59 + Orco; type: cell-based
Method: (§1) In order to expand our analysis on the response properties of HarmORs, we conducted dose–response analyses for the 28 functional HarmORs. […] Six HarmORs (OR3, 22, 48, 50, 56, and 66) could not be activated by any ligand at 10^−5 M. For the other 22 HarmORs, dose–response curves were generated and EC50 values of their major ligands were calculated (fig. 2A and supplementary table S2, Supplementary Material online). The HarmOR repertoire was highly efficient in terpene detection, since the lowest EC50 values were obtained for such compounds. Many of these terpenes have been proposed to be defensive chemicals of plants. […] DMNT is also one of the oviposition deterring compounds found in larval frass of some Lepidoptera species such as S. littoralis ([Anderson et al. 1993]).
(§2) Functional characterization of individual ORs was performed by heterologous expression in Xenopus oocytes combined with a two-electrode voltage-clamp system ([Wang et al. 2010]). Briefly, the full-length gene of each OR and Orco were subcloned into the eukaryotic expression vector pT7TS. cRNAs were generated from linearized expression vectors using the mMESSAGE mMACHINE T7 kit (Ambion, Austin, TX). Then, the cRNA mixture of ORx and Orco (27.6 ng each) was injected (Nanoliter 2010, WPI Inc., Sarasota, FL) into oocytes (stage V–VII). The respective Orcos of different species were used for functional studies of OR42 orthologs except for the four butterfly species (V. tameamea, P. xuthus, D. plexippus, and P. rapae), in which we used the Orco from P. xuthus. After incubation in nutrient solution at 18 °C for 3–5 days, the response profile of each oocyte to multiple plant odorants was recorded via a two-electrode voltage clamp (OC-725C oocyte clamp, Warner Instruments, Hamden, CT) at a holding potential of −80 mV. Data were acquired by using a Digidata 1440 A and were analyzed by pCLAMP 10.2 software (Axon Instruments Inc., Union City, CA).
(§3) Stock solutions of each odorant were prepared at 1 M using DMSO as a solvent, and each odorant was diluted in 1× Ringer’s solution to the indicated concentrations for electrophysiological recording. For functional screening of each HarmOR, a panel of 67 odorants belonging to three types of chemical classes: terpenes, aromatics, and aliphatics (short-chain fatty acid) were used (supplementary table S1, Supplementary Material online). For functional studies of OR42 orthologs from different species, six odorants including PAA, benzaldehyde, (E)-2-hexen-1-al, cinnamaldehyde, 2-phenylethanol, and heptanal were used.

HarmOR42 = HarmOR42 (Helicoverpa armigera, UniProt A0A7T3KAF6); assay: Xenopus oocyte two-electrode voltage clamp, HarmOR42 + Orco; type: cell-based
HarmOR42, sequence (A0A7T3KAF6 entry or part of it): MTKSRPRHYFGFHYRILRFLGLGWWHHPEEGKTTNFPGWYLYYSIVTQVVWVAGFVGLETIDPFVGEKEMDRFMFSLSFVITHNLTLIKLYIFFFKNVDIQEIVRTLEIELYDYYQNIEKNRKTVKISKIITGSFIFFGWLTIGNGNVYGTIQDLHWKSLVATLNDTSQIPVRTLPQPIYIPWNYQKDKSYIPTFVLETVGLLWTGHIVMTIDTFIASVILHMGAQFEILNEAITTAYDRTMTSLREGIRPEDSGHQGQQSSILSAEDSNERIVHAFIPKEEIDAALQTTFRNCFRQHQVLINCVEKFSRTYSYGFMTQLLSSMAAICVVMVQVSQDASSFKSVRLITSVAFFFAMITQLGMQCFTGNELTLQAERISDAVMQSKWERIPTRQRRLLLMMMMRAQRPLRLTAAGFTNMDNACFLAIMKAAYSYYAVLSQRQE
Text: In preliminary screening, we used a high dosage (10^−4 M) of odorants. […] Most functional ORs responded robustly to multiple odorants. The strongest response (up to ∼6,000 nanoampere, nA) we detected was that of HarmOR42 toward the aromatic compound PAA. Further, the response profiles of the 28 HarmORs appeared to be highly differentiated, with no apparent overlap in their tuning spectra (with the exception of HarmOR12 and 36) according to functional cluster analysis (fig. 1A).
as §1, §2, §3

[1] = tested on: HarmOR42 orthologs from 11 lepidopteran species; assay: Xenopus oocyte voltage clamp of HarmOR42 orthologs, six-odorant screen; type: cell-based; settings: six compounds at 10^−4 M; 11 species
Text: We gathered additional experimental evidence to support this conservation of a PAA-sensing function by performing in vitro functional characterization of HarmOR42 orthologs from 11 lepidopteran species belonging to eight families (fig. 5B). […] It should be noted that the species studied here included three Noctuidae species (H. armigera, H. assulta, and Mythimna separata), four moths from Bombycidae (Bombyx mori), Crambidae (Chilo suppressalis), Sphingidae (Manduca sexta), and Tortricidae (Grapholitha molesta) ([Mitter et al. 2017]; [Kawahara et al. 2019]), and four diurnal butterfly species from diverse families (Vanessa tameamea, Papilio xuthus, Danaus plexippus, and Pieris rapae) (fig. 5B). […]
(§4) Functional characterization of individual ORs was performed by heterologous expression in Xenopus oocytes combined with a two-electrode voltage-clamp system ([Wang et al. 2010]). […] After incubation in nutrient solution at 18 °C for 3–5 days, the response profile of each oocyte to multiple plant odorants was recorded via a two-electrode voltage clamp (OC-725C oocyte clamp, Warner Instruments, Hamden, CT) at a holding potential of −80 mV. Data were acquired by using a Digidata 1440 A and were analyzed by pCLAMP 10.2 software (Axon Instruments Inc., Union City, CA). […]

EsemOR19 = assay: Xenopus oocyte voltage clamp of EsemOR19; type: cell-based, Eriocrania semipurpurella; settings: 10^−4 M
Text: (§5) We also examined the response profile of EsemOR19 from E. semipurpurella, an OR that falls close to the HarmOR42-defined clade but that is not considered as a HarmOR42 ortholog. […] We also characterized the function of RnubOR13 from R. nubila (Trichoptera), a species from a sister order of Lepidoptera. […] Unfortunately, the putative E. semipurpurella OR that would consist of EsemOR34 + 35 and that falls at the base of the HarmOR42 clade could not be tested as it is incomplete.
Full-length coding sequences of 45 ORs (including Orco) of H. armigera, and OR42 and Orco orthologs in B. mori, H. assulta, G. molesta, and M. separate were amplified from the antennal cDNA of each species adults by PCR with specific primer pairs of each gene. […]
as §4

RnubOR13 = assay: Xenopus oocyte voltage clamp of RnubOR13; type: cell-based, Rhyacophila nubila; settings: test panel
Text: as §5
as §4, with “2010]). Briefly, the full-length gene of each OR and Orco were subcloned into the eukaryotic expression vector pT7TS. cRNAs were generated from linearized expression vectors using the mMESSAGE mMACHINE T7 kit (Ambion, Austin, TX).” for “2010]).”

[2] = tested on: H. armigera moth antennae; assay: Electroantennography (EAG), wild-type vs HarmOR42 knock-out moths; type: in vivo, Helicoverpa armigera; settings: single odorants, 1 μg
Text: We next conducted a loss-of-function study by generating a HarmOR42-lacking H. armigera strain by CRISPR/Cas9 targeting the first coding exon. Homozygous mutants were obtained with a large segment deletion of 203 bp and a 6-bp nonhomologous insertion in the genome (fig. 6B), introducing a premature stop codon in the coding sequence. […] The most likely hypothesis is that HarmOR42 is not the major receptor for sensing this compound in H. armigera. As a control, we tested the response of male moths to the sex pheromone component Z11-16: Ald that is not a ligand of HarmOR42. As expected, we observed no difference between the EAG responses of mutant and wild-type moths to this compound.
The antennae of 2- to 3-day-old virgin male and female moths were cut at the base of the flagellum. After removing the tip, one antenna was inserted between two glass electrodes filled with 0.1 M KCl solution. In each test, a 10-μl solution of each odorant was added onto a piece of filter paper (0.5 cm × 0.5 cm) and then inserted into a Pasteur pipette. About 100 ng/μl stock solutions of individual odorants and different doses of the mixture IAC were prepared with paraffin oil. A continuous airflow of 30 ml/s was produced by a stimulus controller (CS-55, Syntech, Kirchzarten, Germany). Odor stimulation was controlled by a puff of purified air (0.2 s at 10 ml/s airflow) from the CS-55. EAG signals were amplified with a 10× AC/DC headstage preamplifier (Syntech) and further acquired with an Intelligent Data Acquisition Controller (IDAC-4-USB, Syntech) ([Cao et al. 2016]). The signals were recorded, monitored, and analyzed using Syntech EAG-software (Syntech, Germany). The EAG response values for each compound were calculated by subtracting the value of the same antennae corresponding to a solvent blank of paraffin oil.

HarmOR59, sequence (A0A7T3KAU6 entry or part of it): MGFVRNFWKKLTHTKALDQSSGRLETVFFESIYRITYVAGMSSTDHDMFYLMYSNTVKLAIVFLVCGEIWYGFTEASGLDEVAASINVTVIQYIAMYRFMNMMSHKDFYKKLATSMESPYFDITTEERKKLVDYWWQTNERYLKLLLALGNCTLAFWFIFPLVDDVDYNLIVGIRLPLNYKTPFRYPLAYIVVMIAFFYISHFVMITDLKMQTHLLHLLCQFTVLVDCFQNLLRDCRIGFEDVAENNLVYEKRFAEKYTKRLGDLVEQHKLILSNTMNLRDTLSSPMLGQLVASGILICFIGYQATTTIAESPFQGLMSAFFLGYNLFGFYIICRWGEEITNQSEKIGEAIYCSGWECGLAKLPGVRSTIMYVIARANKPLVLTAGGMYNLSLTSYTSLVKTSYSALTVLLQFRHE

In the case of `O=CCc1ccccc1` [Phenylacetaldehyde], the EC50 (HarmOR59) is reported as 6.97 µM, the EC50 (HarmOR42) is reported as 48 µM and the “ligand tuning of HarmOR42” value (HarmOR42; 67 odorants at 10^−4 M, listed as PAA) is reported as “largest response; also recorded: high specificity and sensitivity”. The current response (HarmOR42; HarmOR42, odorant 10^−4 M, strongest response detected) was ~6,000 nA, the “ligand tuning of HarmOR42 orthologs” value [1] was “robustly tuned to PAA as its best ligand” and the “response of EsemOR19” value (EsemOR19) was “no response”. For the same molecule, the “response of RnubOR13” value (RnubOR13) was “activated neither” and the “EAG response of HarmOR42 knock-out mutants compared with wild-type moths” value [2] was “significantly decreased”.
